Test results published in patent US20230310442A1, “POLY HYDROXY OLIGOMER COATED DOLUTEGRAVIR AQUASOMES AND METHOD THEREOF” (priority 2020, published 2023).

Legend:
[1] = Preformulation study: solubility of dolutegravir sodium in water; assay type: physicochemical; details: preformulation studies
Procedure: Preformulation studies of dolutegravir sodium were performed to know the physical appearance and organoleptic properties.

[2] = In vitro drug dissolution, USP Type II apparatus; assay type: physicochemical
Procedure: In vitro drug dissolution studies 01 In vitro dissolution studies of the pure dolutegravir (PD) and its aquasomal formulations (F1 to F6) were carried out using USP-Type II dissolution apparatus. 900 ml of pH 6.8 phosphate buffer was used as dissolution media and temperature was maintained at 37° C.±0.5° C. with paddle rotation speed at 50 rpm. Aliquots of 5 ml were withdrawn at various intervals and were replaced with same quantity of fresh dissolution medium to maintain the sink condition. Samples were filtered through wattman filter paper and analysed UV—Vis spectrophotometrically at 259.80 nm. The dissolution experiments were conducted in triplicate and the cumulative percentage of drug release was calculated. […] Dissolution efficiency (DE) values were calculated as per Khan^1 and T50 (time taken for 50% dissolution) values were recorded from the dissolution profiles.
A comparative in vitro drug release study was performed in pH 6.8 phosphate buffer for pure dolutegravir sodium (PD) and all designed formulations (F1-F6), the data was shown in Table 7. The dissolution experiments were conducted in triplicate. Dissolution efficiency (DE5) values were calculated as per Khan^1. T50 (time taken for 50% dissolution) values were recorded from the dissolution profiles.
The dissolution data of formulations PD and dolutegravir aquasomes were fitted into mathematical models such as zero order, first order and Hixson Crowell models kinetics and the plots were shown in Table No: 8. The release kinetics of pure drug (PD) and dolutegravir aquasomes follows zero order as well as Hixson Crowell model because the values of regression coefficient obtained for zero order release profiles are higher as compared to first order kinetics. […] The cube root dissolution rate constant (KH) of Hixson Crowell values of PD is 0.124 and optimized formulation F6 is 0.713. During dissolution, the radius of the particle, mass of the particle was changed. […]

[3] = test system: herpes simplex virus (HSV) infected vero cells; experiment: In vitro MTT antiviral assay; assay type: cell-based; details: 0.01 to 100 μ/mL
[4] = cited from earlier work
[5] = cited from earlier work; remark: listed apart in the source
human plasma proteins = details: cited from earlier work
UGT1A1 = target: T1, UGT1A1 (Homo sapiens, UniProt P22309); details: cited from earlier work
T1 sequence (P22309 26-533): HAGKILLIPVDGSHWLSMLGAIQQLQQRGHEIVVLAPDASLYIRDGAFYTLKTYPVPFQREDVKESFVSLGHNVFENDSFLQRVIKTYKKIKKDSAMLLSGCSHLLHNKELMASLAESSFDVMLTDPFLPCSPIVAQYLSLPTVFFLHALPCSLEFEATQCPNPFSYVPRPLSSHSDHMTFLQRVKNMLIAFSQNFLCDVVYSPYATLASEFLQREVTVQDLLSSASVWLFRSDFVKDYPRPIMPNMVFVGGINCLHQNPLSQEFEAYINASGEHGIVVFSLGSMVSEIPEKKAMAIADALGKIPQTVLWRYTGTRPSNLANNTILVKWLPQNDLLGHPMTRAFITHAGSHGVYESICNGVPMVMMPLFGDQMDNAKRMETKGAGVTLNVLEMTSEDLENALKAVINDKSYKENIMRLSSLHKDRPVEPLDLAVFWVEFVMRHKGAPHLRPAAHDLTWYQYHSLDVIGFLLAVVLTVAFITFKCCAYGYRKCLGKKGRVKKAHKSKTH

C[C@@H]1CCO[C@H]2Cn3cc(C(=O)NCc4ccc(F)cc4F)c(=O)c(O)c3C(=O)N12 [PD, sodium (4R,12aS)-9-{[(2,4-difluorophenyl)methyl]carbamoyl}-4-methyl-6,8-dioxo-3,4,6,8,12,12a-hexahydro-2H-pyrido[1′, 2′:4,5]pyrazino[2,1-b][1,3]oxazin-7-olate]
solubility [1]: 1.6 µg/mL | T50 (time taken for 50% dissolution) [2]: 38.5 h | % of Dolutegravir Sodium Release ([2]; 0 hr, pH 6.8 phosphate buffer): 0% | % of Dolutegravir Sodium Release ([2]; 0.5 hr, pH 6.8 phosphate buffer): 7.38 ± 0.12% | % of Dolutegravir Sodium Release ([2]; 1 hr, pH 6.8 phosphate buffer): 13.45 ± 0.14% | % of Dolutegravir Sodium Release ([2]; 2 hr, pH 6.8 phosphate buffer): 15.27 ± 0.12% | % of Dolutegravir Sodium Release ([2]; 3 hr, pH 6.8 phosphate buffer): 15.79 ± 0.19% | % of Dolutegravir Sodium Release ([2]; 4 hr, pH 6.8 phosphate buffer): 16.92 ± 0.12% | % of Dolutegravir Sodium Release ([2]; 5 hr, pH 6.8 phosphate buffer): 17.82 ± 0.09% | % of Dolutegravir Sodium Release ([2]; 6 hr, pH 6.8 phosphate buffer): 18.33 ± 0.10% | % of Dolutegravir Sodium Release ([2]; 7 hr, pH 6.8 phosphate buffer): 20.13 ± 0.12% | % of Dolutegravir Sodium Release ([2]; 8 hr, pH 6.8 phosphate buffer): 20.27 ± 0.43% | % of Dolutegravir Sodium Release ([2]; 9 hr, pH 6.8 phosphate buffer): 22.27 ± 0.12% | % of Dolutegravir Sodium Release ([2]; 10 hr, pH 6.8 phosphate buffer): 22.45 ± 0.14% | % of Dolutegravir Sodium Release ([2]; 11 hr, pH 6.8 phosphate buffer): 25.23 ± 0.13% | % of Dolutegravir Sodium Release ([2]; 12 hr, pH 6.8 phosphate buffer): 26.45 ± 0.22% | DE5 (dissolution efficiency) ([2]; at 5 h, pH 6.8 phosphate buffer): 14.80% | Hixson Crowell (KH) ([2]; cube root dissolution rate constant): 0.124 mg^1/3/hr | First order (K1) ([2]; dissolution rate constant): 0.018 h⁻¹ | Zero order (Ko) ([2]; dissolution rate constant): 1.566 mg/h | Correlation Coefficient Values (r) First order ([2]; drug release kinetics fit): 0.845 | Correlation Coefficient Values (r) Hixson Crowell ([2]; drug release kinetics fit): 0.443 | Correlation Coefficient Values (r) Zero order ([2]; drug release kinetics fit): 0.812 | IC50 [3]: 57.9 ± 4.6 µg/mL | Solubility: soluble in water ([4]; at 25° C.): 3500 µg/mL | Particle Size ([4]; drug profile): 5 microns | Cmax ([5]; absorption): 7.97-14.70 μm | tmax ([5]; absorption): 0.5 to 2 h | Clearance ([5]; in vivo): 1 L/h | Half-life ([5]; in vivo): 14 h | drug eliminated from urine ([5]; in vivo): 32% | drug eliminated through feces ([5]; in vivo): 53% | protein bound to human plasma proteins (human plasma proteins): > 98.9% | primarily metabolized by (UGT1A1): UGT1A1
